Columns and labels:
[1] = biological target: 5-hydroxytryptamine receptor 4 (Rattus norvegicus, UniProt Q62758); test: Compound was evaluated for the agonistic activity towards 5-hydroxytryptamine 4 receptor using the rat tunica muscularis mucosae (TMM) esophagus strip assay; format: functional, tissue-based, Muscularis mucosa
[2] = biological target: T1, 5-hydroxytryptamine receptor 3A (Rattus norvegicus, UniProt P35563); test: Compound was evaluated […] for the antagonistic activity towards 5-hydroxytryptamine 3 receptor; format: functional
T1 sequence (P35563 whole entry): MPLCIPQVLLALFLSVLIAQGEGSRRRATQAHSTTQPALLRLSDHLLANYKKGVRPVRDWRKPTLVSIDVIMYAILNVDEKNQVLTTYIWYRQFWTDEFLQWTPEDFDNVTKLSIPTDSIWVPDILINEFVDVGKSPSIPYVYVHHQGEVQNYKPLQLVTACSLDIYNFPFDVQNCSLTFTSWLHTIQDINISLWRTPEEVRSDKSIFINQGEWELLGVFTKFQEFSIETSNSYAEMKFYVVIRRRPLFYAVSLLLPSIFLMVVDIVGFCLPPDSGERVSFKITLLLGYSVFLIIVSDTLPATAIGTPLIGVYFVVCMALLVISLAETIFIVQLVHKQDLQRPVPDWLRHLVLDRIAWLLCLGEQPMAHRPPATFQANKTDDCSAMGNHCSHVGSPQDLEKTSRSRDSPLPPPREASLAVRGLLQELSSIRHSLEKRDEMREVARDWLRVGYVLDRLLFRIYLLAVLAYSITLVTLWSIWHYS

[3] = system: Rattus norvegicus; test: Minimum effective dose(ip) required for inhibition of serotonin-induced bradycardic response in the Bezold-Jarisch reflex functional model; conditions: for minimal effective dose: Rattus norvegicus, ip, read-out: MED

Chain of 5-hydroxytryptamine receptor 4 (Q62758 whole entry): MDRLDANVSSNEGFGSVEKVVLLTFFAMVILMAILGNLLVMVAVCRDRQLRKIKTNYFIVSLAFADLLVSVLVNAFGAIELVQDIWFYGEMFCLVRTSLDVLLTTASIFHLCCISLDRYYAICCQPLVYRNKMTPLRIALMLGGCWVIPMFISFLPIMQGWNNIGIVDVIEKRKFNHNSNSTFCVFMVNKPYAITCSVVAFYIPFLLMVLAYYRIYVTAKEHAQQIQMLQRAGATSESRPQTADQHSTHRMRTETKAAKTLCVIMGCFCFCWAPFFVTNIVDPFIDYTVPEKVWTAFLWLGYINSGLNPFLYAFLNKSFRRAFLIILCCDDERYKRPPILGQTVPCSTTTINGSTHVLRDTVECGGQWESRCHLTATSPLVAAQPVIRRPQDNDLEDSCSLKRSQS

Structure (SMILES)	EC50 [1]	Ki [2]	minimal effective dose [3]	MED [3]
COc1cc(N)c(Cl)cc1C(=O)N[C@@H]1CN2CCC1CC2	203 nM	0.23 nM	0.3 mg/kg	
COc1cc(N)c(Cl)cc1C(=O)NC1C2CC3CC1CN(C3)C2 (stereo in doubt; 1A)	538 nM	336 nM		10 mg/kg
COc1cc(N)c(Cl)cc1C(=O)N[C@@H]1CCN(CCCOc2ccc(F)cc2)C[C@@H]1OC [CISAPRIDE]			5 mg/kg	
COc1cc(N)c(Cl)cc1C(=O)N[C@H]1C2CC3CN(C2)CC31 (some centres undefined)	3870 nM	3.9 nM	0.01 mg/kg	
COc1cc(N)c(Cl)cc1C(=O)NC1C2CC3CC1CN(C3)C2 (stereo in doubt)	262 nM	9 nM		0.03 mg/kg

The next lines start with results.

EC50 [1]	Ki [2]	Structure (SMILES)	minimal effective dose [3]	MED [3]
51.3 nM	1.2 nM	COc1cc(N)c(Cl)cc1C(=O)N[C@@H]1C2CC3CN(C2)CC31 (some centres undefined)	0.01 mg/kg	
98 nM	5.6 nM	COc1cc(N)c(Cl)cc1C(=O)NC1CCN2CCCC1C2 (centres undefined) [RENZAPRIDE]	0.25 mg/kg	

Reference: ChEMBL document CHEMBL1126380, “New aza(nor)adamantanes are agonists at the newly identified serotonin 5-HT4 receptor and antagonists at the 5-HT3 receptor” (Bioorg Med Chem Lett, 1992)
